Patent publication US12152019B2, “Arylalkyl pyrazole compounds as indoleamine 2,3-dioxygenase inhibitors” (Merck Sharp & Dohme LLC, priority 2018, dated 2024)

Target: IDO1 (Homo sapiens, UniProt P14902)
Experiment: IDO1 Human Whole Blood Assay
Type: cell-based
Settings: LPS and IFNγ 100 ng/mL, overnight (18 h), kynurenine by LC/MS/MS, read-out: Human Whole Blood Potency, IC50
Protocol: IDO1 Human Whole Blood Assay Compounds to be tested were serially diluted in ten 3-fold steps in DMSO starting from 10 mM. 3 μL of compound dilutions or DMSO alone were then dispensed from the dilution plate into a polypropylene 96-well assay plate containing 97 μL of RPMI using an Echo 555 acoustic liquid handler (Labcyte). LPS and IFNγ was prepared in RPMI to a 10× of final conc. (1000 ng/mL), final concentration is 100 ng/mL. […] 240 μL of blood was transferred to each of the wells of a v-bottom 96 well plate. 30 μL of compound was transferred from intermediate dilution plate, and incubated for 15 min. 30 μL from stimulants was then transferred to blood and mixed thoroughly. Plate was covered with breathable membrane and incubated at 37° C. for overnight (18 h). […] Plasma was diluted with RPMI in 1:1 ratio and proteins were precipitated out with two volume of Acetonitrile. The plates were centrifuged at 4000×G for 60 min. 20 μL of supernatant was carefully transferred to a 384 well plate contain 40 μL of 0.1% formic acid in water and analyzed by LC/MS/MS. LC/MS/MS analyses were performed using Thermo Fisher's LX4-TSQ Quantum Ultra system. This system consists of four Agilent binary high-performance liquid chromatography (HPLC) pumps and a TSQ Quantum Ultra triple quadrupole MS/MS instrument. For each sample, 5 μL were injected onto an Atlantis T3 column (2.1 mm×150 mm, 3 μm particle size) from Waters. The mobile phase gradient pumped at 0.8 mL/min was used to elute the analytes from the column at 25° C. The elution started at 0% B increasing linearly to 25% B at 6.5 min, holding at 25% for 1 min, re-equilibrating to 10 min. Mobile phase A consisted of 0.1% formic acid in water. Mobile phase B consisted of 0.1% of formic acid in acetonitrile. Data was acquired in positive mode using a HESI interface. The operational parameters for the TSQ Quantum Ultra instrument were a spray voltage of 4000 V, capillary temperature of 380° C., vaporizer temperature 400° C., shealth gas 60 arbitrary units, Aux gas 20 arbitrary units, tube lens 85 and collision gas 1.2 mTorr. SRM chromatograms of kynurenine (Q1: 209.2>Q3:94.0) and internal standard (Q1: 215.3>Q3:98.2) were collected for 90 sec. The peak area was integrated by Xcalibur Quan software. […] Compounds were titrated and IC50's were calculated by 4 parameter sigmoidal curve fitting formula.

Sequence of IDO1 (P14902 whole entry): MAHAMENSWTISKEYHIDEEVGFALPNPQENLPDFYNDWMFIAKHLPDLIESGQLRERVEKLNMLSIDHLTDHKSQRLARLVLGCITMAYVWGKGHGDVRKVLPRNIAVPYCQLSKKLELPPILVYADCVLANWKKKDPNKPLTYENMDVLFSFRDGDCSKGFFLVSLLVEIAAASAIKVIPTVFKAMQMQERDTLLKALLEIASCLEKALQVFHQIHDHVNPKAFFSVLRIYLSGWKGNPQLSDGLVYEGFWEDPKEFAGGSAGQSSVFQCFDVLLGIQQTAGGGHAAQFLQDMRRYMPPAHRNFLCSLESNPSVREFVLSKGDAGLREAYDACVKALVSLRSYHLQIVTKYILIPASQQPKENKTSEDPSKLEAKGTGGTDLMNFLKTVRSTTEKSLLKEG

| IC50 [nM] | Compound |
| --- | --- |
| 800 | Cc1c(F)ccc(N2CCC(CCn3nc(C(=O)N4CCN(C(=O)CO)CC4)c4c3CCC4)CC2)c1C [Example 11, 1-[4-[1-[2-[1-(4-fluoro-2,3-dimethyl-phenyl)piperidin-1-ium-4-yl]ethyl]-5,6-dihydro-4H-cyclopenta[c]pyrazole-3-carbonyl]piperazin-1-yl]-2-hydroxy-ethanone] |
| 935 | CC(=O)NC1CCN(C(=O)c2nn(CCC3CCN(c4nccc(C(F)(F)F)c4F)CC3)c3c2CCCC3)CC1 [Example 35, N-[1-[1-[2-[1-[3-fluoro-4-(trifluoromethyl)-2-pyridyl]-4-piperidyl]ethyl]-4,5,6,7-tetrahydroindazole-3-carbonyl]-4-piperidyl]acetamide] |
| 261 | CC(=O)NC1CCN(C(=O)c2nn(CCN3CCN(c4cccc(Cl)c4C)CC3)c3c2[C@@H]2C[C@@H]2C3)CC1 [Example 102, N-(1-((3bR,4aR)-1-(2-(4-(3-chloro-2-methylphenyl)piperazin-1-yl)ethyl)-3b,4,4a,5-tetrahydro-1H-cyclopropa[3,4]cyclopenta[1,2-c]pyrazole-3-carbonyl)piperidin-4-yl)acetamide] |
| 178 | CC(=O)NC1CCN(C(=O)c2nn(CC[C@H]3CC[C@@H](Oc4ncccc4C)CC3)cc2C2CC2)CC1 [Example 74, N-(1-(4-cyclopropyl-1-(2-((1s,4s)-4-((3-methylpyridin-2-yl)oxy)cyclohexyl)ethyl)-1H-pyrazole-3-carbonyl)piperidin-4-yl)acetamide] |
| 30.6 | CC(=O)NC1CCN(C(=O)c2nn(CC[C@H]3CC[C@@H](Oc4ccccc4C)CC3)c3c2CCC3)CC1 [Example 61, N-(1-(1-(2-((1s,4s)-4-(2-methylphenoxy)cyclohexyl)ethyl)-1,4,5,6-tetrahydrocyclopenta[c]pyrazole-3-carbonyl)piperidin-4-yl)acetamide] |
| 286 | CC(=O)NC1CCN(C(=O)c2nn(CCC3CCN(c4cccc(Cl)c4C)CC3)c3c2CCCC3)CC1 [Example 20, N-[1-[1-[2-[1-(3-chloro-2-methyl-phenyl)-4-piperidyl]ethyl]-4,5,6,7-tetrahydroindazole-3-carbonyl]-4-piperidyl]acetamide] |
| 538 | Cc1ccc(Cl)c(O[C@H]2CC[C@@H](CCn3nc(C(=O)N4CCC(F)(CO)CC4)c4c3CCC4)CC2)c1 [Example 58, (1-(2-((1s,4s)-4-(2-chloro-5-methylphenoxy)cyclohexyl)ethyl)-1,4,5,6-tetrahydrocyclopenta[c]pyrazol-3-yl)(4-fluoro-4-(hydroxymethyl)piperidin-1-yl)methanone] |
| 161 | CC(=O)NC1CCN(C(=O)c2nn(CC[C@H]3CC[C@@H](Oc4ccccc4Cl)CC3)c3c2CCC3)CC1 [Example 70, N-[1-[1-[2-[4-(2-chlorophenoxy)cyclohexyl]ethyl]-5,6-dihydro-4H-cyclopenta[c]pyrazole-3-carbonyl]-4-piperidyl]acetamide] |
| 736 | Cc1cccnc1O[C@H]1CC[C@@H](CCn2nc(C(=O)N3CCC(O)CC3)c3c2C[C@H](C(F)F)CC3)CC1 [Example 87, [(6R)-6-(difluoromethyl)-1-(2-{cis-4-[(3-methylpyridin-2-yl)oxy]cyclohexyl}ethyl)-4,5,6,7-tetrahydro-1H-indazol-3-yl](4-hydroxypiperidin-1-yl)methanone] |
| 166 | Cc1cccc(C2CCC(CCn3nc(C(=O)N4CCC(O)CC4)c4c3CCC4)CC2)c1C (single isomer, unassigned) [Example 95, (1-(2-(4-(2,3-dimethylphenyl)cyclohexyl)ethyl)-1,4,5,6-tetrahydrocyclopenta[c]pyrazol-3-yl)(4-hydroxypiperidin-1-yl)methanone] |
| 153 | CC(=O)NC1CCN(C(=O)c2nn(CC[C@H]3CC[C@@H](Oc4nccc(C)c4C#N)CC3)c3c2CCC3)CC1 [Example 66, N-(1-(1-(2-((1s,4s)-4-((3-cyano-4-methylpyridin-2-yl)oxy)cyclohexyl)ethyl)-1,4,5,6-tetrahydrocyclopenta[c]pyrazole-3-carbonyl)piperidin-4-yl)acetamide] |
| 215 | CC(=O)NC1CCN(C(=O)c2nn(CC[C@H]3CC[C@@H](Oc4cnccc4C)CC3)c3c2CCC3)CC1 [Example 64, N-(1-(1-(2-((1s,4s)-4-((4-methylpyridin-3-yl)oxy)cyclohexyl)ethyl)-1,4,5,6-tetrahydrocyclopenta[c]pyrazole-3-carbonyl)piperidin-4-yl)acetamide] |
| 437 | CC(=O)NC1CCN(C(=O)c2nn(CCC3CCN(c4ccc(F)c(F)c4C)CC3)c3c2CCCC3)CC1 [Example 18, N-[1-[1-[2-[1-(3,4-difluoro-2-methyl-phenyl)-4-piperidyl]ethyl]-4,5,6,7-tetrahydroindazole-3-carbonyl]-4-piperidyl]acetamide] |
| 247 | CC(=O)NC1CCN(C(=O)c2nn(CCN3CCN(c4cccc(C)c4C)CC3)c3c2[C@@H]2C[C@@H]2C3)CC1 [Example 100, N-(1-((3bR,4aR)-1-(2-(4-(2,3-dimethylphenyl)piperazin-1-yl)ethyl)-3b,4,4a,5-tetrahydro-1H-cyclopropa[3.4]cyclopenta[1,2-c]pyrazole-3-carbonyl)piperidin-4-yl)acetamide] |
| 517 | Cc1ccc(Cl)c(O[C@H]2CC[C@@H](CCn3nc(C(=O)N4CCN(C(=O)CO)CC4)c4c3CCC4)CC2)c1 [Example 57, 1-(4-(1-(2-((1s,4s)-4-(2-chloro-5-methylphenoxy)cyclohexyl)ethyl)-1,4,5,6-tetrahydrocyclopenta[c]pyrazole-3-carbonyl)piperazin-1-yl)-2-hydroxyethan-1-one] |
| 136 | CC(=O)NC1CCN(C(=O)c2nn(C[C@@H]3C[C@@H](Oc4ccc(Cl)cn4)CCO3)c3c2CC(F)(F)CC3)CC1 [Example 77, 6-{3-[4-(acetylamino)piperidine-1-carbonyl]-5,5-difluoro-4,5,6,7-tetrahydro-1H-indazol-1-yl}-1,5-anhydro-3-O-(5-chloropyridin-2-yl)-2,4,6-trideoxy-D-erythro-hexitol] |
| 822 | Cc1c(Cl)cccc1O[C@H]1CC[C@@H](CCn2nc(C(=O)N3C[C@@H](C)O[C@@H](C)C3)c3c2CCC3)CC1 [Example 53, (1-(2-((1s,4S)-4-(3-chloro-2-methylphenoxy)cyclohexyl)ethyl)-1,4,5,6-tetrahydrocyclopenta[c]pyrazol-3-yl)((2R,6S)-2,6-dimethylmorpholino)methanone] |
| 177 | Cc1c(F)ccc(C2CCC(CCn3nc(C(=O)N4CCN(C(=O)CO)CC4)c4c3CCC4)CC2)c1C (single isomer, unassigned) [Example 49, 1-(4-(1-(2-(4-(4-fluoro-2,3-dimethylphenyl)cyclohexyl)ethyl)-1,4,5,6-tetrahydrocyclopenta[c]pyrazole-3-carbonyl)piperazin-1-yl)-2-hydroxyethan-1-one] |
| 328 | Cc1cccc(C2CCC(CCn3nc(C(=O)N4CCC(O)CC4)c4c3CCC4)CC2)c1C (single isomer, unassigned) [Example 96, (1-(2-(4-(2,3-dimethylphenyl)cyclohexyl)ethyl)-1,4,5,6-tetrahydrocyclopenta[c]pyrazol-3-yl)(4-hydroxypiperidin-1-yl)methanone] |
| 448 | Cc1c(F)ccc(C2CCC(CCn3nc(C(=O)N4CCC(F)(CO)CC4)c4c3CCC4)CC2)c1C (single isomer, unassigned) [Example 52, (1-(2-(4-(4-fluoro-2,3-dimethylphenyl)cyclohexyl)ethyl)-1,4,5,6-tetrahydrocyclopenta[c]pyrazol-3-yl)(4-fluoro-4-(hydroxymethyl)piperidin-1-yl)methanone] |
| 130 | CC(=O)NC1CCN(C(=O)c2nn(CC[C@H]3CC[C@@H](Oc4ccccc4C(F)(F)F)CC3)c3c2CCC3)CC1 [Example 65, N-(1-(1-(2-((1s,4s)-4-(2-(trifluoromethyl)phenoxy)cyclohexyl)ethyl)-1,4,5,6-tetrahydrocyclopenta[c]pyrazole-3-carbonyl)piperidin-4-yl)acetamide] |
| 110 | Cc1cccnc1O[C@H]1CC[C@@H](CCn2nc(C(=O)N3CC[C@H](O)[C@H](F)C3)c3c2C[C@H]2C[C@@H]32)CC1 [Example 83, [(3R,4S)-3-fluoro-4-hydroxypiperidin-1-yl] [(3bR,4aR)-1-(2-{cis-4-[(3-methylpyridin-2-yl)oxy]cyclohexyl}ethyl)-3b,4,4a,5-tetrahydro-1H-cyclopropa[3,4]cyclopenta [1,2-c]pyrazol-3-yl] methanone] |
